According to ChEMBL document CHEMBL3885861, “Open TG-GATES”:

Species on record: Rattus norvegicus
Experiment: Open TG-GATES - Regimen: Daily Repeat
Format: toxicity, organism-based, Sprague-Dawley
Design: regimen Daily Repeat, gender Male, age 6 weeks
Details: in vivo, po, 1000 mg/kg, route gavage, dose level High; for APTT / Bas / Eos / Fbg / Hb / Ht / Lym / MCH / MCHC / MCV / Mono / Neu / PT / Plat / RBC / Ret / WBC: tissue Blood; for KIDNEY_L / KIDNEY_R / KIDNEY_TOTAL: tissue Kidney; for LIVER: tissue Liver; for A/G / ALP / ALT / AST / BUN / CRE / Ca / Cl / DBIL / GLC / IP / K / LDH / Na / PL / RALB / TBIL / TC / TG / TP / gamma-GTP: tissue Plasma

O=C(OC[C@H]1O[C@@H](OC(=O)c2cc(O)c(O)c(OC(=O)c3cc(O)c(O)c(O)c3)c2)[C@H](OC(=O)c2cc(O)c(O)c(OC(=O)c3cc(O)c(O)c(O)c3)c2)[C@@H](OC(=O)c2cc(O)c(O)c(OC(=O)c3cc(O)c(O)c(O)c3)c2)[C@@H]1OC(=O)c1cc(O)c(O)c(OC(=O)c2cc(O)c(O)c(O)c2)c1)c1cc(O)c(O)c(OC(=O)c2cc(O)c(O)c(O)c2)c1 [TANNIC ACID] showed a TERMINAL_BW (72 h, time 3 day) of 216.2 g, an APTT (72 h, time 3 day) of 17 s and a Bas (72 h, time 3 day) of 0%. For the same molecule, the Eos (72 h, time 3 day) was 1.4%, the Fbg (72 h, time 3 day) was 234.6 mg/dL and the Hb (72 h, time 3 day) was 13.2 g/dL. The Ht (72 h, time 3 day) was 39.6%, the Lym (72 h, time 3 day) was 67.8% and the MCH (72 h, time 3 day) was 21.3 pg. The MCHC (72 h, time 3 day) was 33.3%, the MCV (72 h, time 3 day) was 63.8 fL and the Mono (72 h, time 3 day) was 10.2%. For the same molecule, the Neu (72 h, time 3 day) was 20.6%, the PT (72 h, time 3 day) was 11.6 s and the Plat (72 h, time 3 day) was 110.8 x10_4/uL. For the same molecule, the RBC (72 h, time 3 day) was 621.4 x10_4/ul, the Ret (72 h, time 3 day) was 7.9% and the WBC (72 h, time 3 day) was 91.3 x10_2/uL. It also gave a KIDNEY_L (72 h, time 3 day) of 1 g, a KIDNEY_R (72 h, time 3 day) of 1 g and a KIDNEY_TOTAL (72 h, time 3 day) of 1.9 g. The LIVER (72 h, time 3 day) was 10.6 g, the A/G (72 h, time 3 day) was 2 and the ALP (72 h, time 3 day) was 818.6 IU/L. The ALT (72 h, time 3 day) was 42.6 IU/L, the AST (72 h, time 3 day) was 65.6 IU/L and the BUN (72 h, time 3 day) was 17.6 mg/dL. It also gave a CRE (72 h, time 3 day) of 0.4 mg/dL, a Ca (72 h, time 3 day) of 10.9 mg/dL and a Cl (72 h, time 3 day) of 104.2 meq/L. For the same molecule, the DBIL (72 h, time 3 day) was 0.004 mg/dL, the GLC (72 h, time 3 day) was 204.4 mg/dL and the IP (72 h, time 3 day) was 7.9 mg/dL. The K (72 h, time 3 day) was 4.6 meq/L, the LDH (72 h, time 3 day) was 81.6 IU/L and the Na (72 h, time 3 day) was 139.4 meq/L. It also gave a PL (72 h, time 3 day) of 152.8 mg/dL, an RALB (72 h, time 3 day) of 3.6 g/dL and a TBIL (72 h, time 3 day) of 0.4 mg/dL. The TC (72 h, time 3 day) was 85 mg/dL, the TG (72 h, time 3 day) was 88.6 mg/dL and the TP (72 h, time 3 day) was 5.5 g/dL. For the same molecule, the gamma-GTP (72 h, time 3 day) was 1.2 IU/L, the TERMINAL_BW ([…], time 7 day) was 253.1 g and the TERMINAL_BW ([…], time 14 day) was 291.2 g. For the same molecule, the TERMINAL_BW ([…], time 28 day) was 390.8 g, the APTT ([…], time 7 day) was 17.3 s and the Bas ([…], time 7 day) was 0%. The Eos ([…], time 7 day) was 1%, the Fbg ([…], time 7 day) was 227.4 mg/dL and the Hb ([…], time 7 day) was 13.3 g/dL. The Ht ([…], time 7 day) was 40%, the Lym ([…], time 7 day) was 72% and the MCH ([…], time 7 day) was 21.8 pg. For the same molecule, the MCHC ([…], time 7 day) was 33.3%, the MCV ([…], time 7 day) was 65.5 fL and the Mono ([…], time 7 day) was 6%. It also gave a Neu ([…], time 7 day) of 21.2%, a PT ([…], time 7 day) of 11.3 s and a Plat ([…], time 7 day) of 121.1 x10_4/uL. The RBC ([…], time 7 day) was 610.4 x10_4/ul, the Ret ([…], time 7 day) was 7.4% and the WBC ([…], time 7 day) was 103.9 x10_2/uL. For the same molecule, the APTT ([…], time 14 day) was 16.4 s, the Bas ([…], time 14 day) was 0% and the Eos ([…], time 14 day) was 1%. It also gave a Fbg ([…], time 14 day) of 241.2 mg/dL, a Hb ([…], time 14 day) of 14.5 g/dL and a Ht ([…], time 14 day) of 43.2%. The Lym ([…], time 14 day) was 74.8%, the MCH ([…], time 14 day) was 20.5 pg and the MCHC ([…], time 14 day) was 33.4%. The MCV ([…], time 14 day) was 61.3 fL, the Mono ([…], time 14 day) was 9.4% and the Neu ([…], time 14 day) was 14.8%. The PT ([…], time 14 day) was 11.5 s, the Plat ([…], time 14 day) was 121.1 x10_4/uL and the RBC ([…], time 14 day) was 705.6 x10_4/ul. The Ret ([…], time 14 day) was 4.7%, the WBC ([…], time 14 day) was 116.2 x10_2/uL and the APTT ([…], time 28 day) was 16 s. It also gave a Bas ([…], time 28 day) of 0%, an Eos ([…], time 28 day) of 1.6% and a Fbg ([…], time 28 day) of 225.2 mg/dL. For the same molecule, the Hb ([…], time 28 day) was 14.4 g/dL, the Ht ([…], time 28 day) was 43% and the Lym ([…], time 28 day) was 78.2%. The MCH ([…], time 28 day) was 19.4 pg, the MCHC ([…], time 28 day) was 33.5% and the MCV ([…], time 28 day) was 57.9 fL. The Mono ([…], time 28 day) was 7.6%, the Neu ([…], time 28 day) was 12.6% and the PT ([…], time 28 day) was 11.6 s. The Plat ([…], time 28 day) was 118.3 x10_4/uL, the RBC ([…], time 28 day) was 741.4 x10_4/ul and the Ret ([…], time 28 day) was 3.1%. It also gave a WBC ([…], time 28 day) of 130.6 x10_2/uL, a KIDNEY_L ([…], time 7 day) of 1.1 g and a KIDNEY_R ([…], time 7 day) of 1.1 g. The KIDNEY_TOTAL ([…], time 7 day) was 2.2 g, the KIDNEY_L ([…], time 14 day) was 1.1 g and the KIDNEY_R ([…], time 14 day) was 1.1 g. For the same molecule, the KIDNEY_TOTAL ([…], time 14 day) was 2.3 g, the KIDNEY_L ([…], time 28 day) was 1.4 g and the KIDNEY_R ([…], time 28 day) was 1.4 g. For the same molecule, the KIDNEY_TOTAL ([…], time 28 day) was 2.8 g, the LIVER ([…], time 7 day) was 12.1 g and the LIVER ([…], time 14 day) was 12.9 g. It also gave an LIVER ([…], time 28 day) of 16.8 g, an A/G ([…], time 7 day) of 1.7 and an ALP ([…], time 7 day) of 897.4 IU/L. The ALT ([…], time 7 day) was 34.2 IU/L, the AST ([…], time 7 day) was 60 IU/L and the BUN ([…], time 7 day) was 16.2 mg/dL. For the same molecule, the CRE ([…], time 7 day) was 0.5 mg/dL, the Ca ([…], time 7 day) was 10.8 mg/dL and the Cl ([…], time 7 day) was 103.2 meq/L. For the same molecule, the DBIL ([…], time 7 day) was 0.012 mg/dL, the GLC ([…], time 7 day) was 200.4 mg/dL and the IP ([…], time 7 day) was 8 mg/dL. The K ([…], time 7 day) was 4.6 meq/L, the LDH ([…], time 7 day) was 93.4 IU/L and the Na ([…], time 7 day) was 136.6 meq/L. It also gave a PL ([…], time 7 day) of 125.4 mg/dL, an RALB ([…], time 7 day) of 3.7 g/dL and a TBIL ([…], time 7 day) of 0.4 mg/dL. The TC ([…], time 7 day) was 62.6 mg/dL, the TG ([…], time 7 day) was 91 mg/dL and the TP ([…], time 7 day) was 5.9 g/dL. The gamma-GTP ([…], time 7 day) was 1 IU/L, the A/G ([…], time 14 day) was 1.9 and the ALP ([…], time 14 day) was 720.4 IU/L. It also gave an ALT ([…], time 14 day) of 35.4 IU/L, an AST ([…], time 14 day) of 58.6 IU/L and a BUN ([…], time 14 day) of 17.8 mg/dL. For the same molecule, the CRE ([…], time 14 day) was 0.5 mg/dL, the Ca ([…], time 14 day) was 10.7 mg/dL and the Cl ([…], time 14 day) was 104.6 meq/L. For the same molecule, the DBIL ([…], time 14 day) was 0.024 mg/dL, the GLC ([…], time 14 day) was 204.2 mg/dL and the IP ([…], time 14 day) was 8.3 mg/dL. For the same molecule, the K ([…], time 14 day) was 4.6 meq/L, the LDH ([…], time 14 day) was 87.6 IU/L and the Na ([…], time 14 day) was 140.4 meq/L. It also gave a PL ([…], time 14 day) of 145.2 mg/dL, an RALB ([…], time 14 day) of 3.8 g/dL and a TBIL ([…], time 14 day) of 0.4 mg/dL. The TC ([…], time 14 day) was 70.4 mg/dL, the TG ([…], time 14 day) was 115.8 mg/dL and the TP ([…], time 14 day) was 5.8 g/dL. It also gave a gamma-GTP ([…], time 14 day) of 0.8 IU/L, an A/G ([…], time 28 day) of 1.8 and an ALP ([…], time 28 day) of 573 IU/L. It also gave an ALT ([…], time 28 day) of 31.6 IU/L, an AST ([…], time 28 day) of 54 IU/L and a BUN ([…], time 28 day) of 20.4 mg/dL. For the same molecule, the CRE ([…], time 28 day) was 0.5 mg/dL, the Ca ([…], time 28 day) was 10.7 mg/dL and the Cl ([…], time 28 day) was 105.8 meq/L. The DBIL ([…], time 28 day) was 0.006 mg/dL, the GLC ([…], time 28 day) was 199.2 mg/dL and the IP ([…], time 28 day) was 7.8 mg/dL. For the same molecule, the K ([…], time 28 day) was 4.5 meq/L, the LDH ([…], time 28 day) was 87.8 IU/L and the Na ([…], time 28 day) was 139 meq/L. It also gave a PL ([…], time 28 day) of 152.6 mg/dL, an RALB ([…], time 28 day) of 3.8 g/dL and a TBIL ([…], time 28 day) of 0.4 mg/dL. For the same molecule, the TC ([…], time 28 day) was 73.4 mg/dL, the TG ([…], time 28 day) was 139.4 mg/dL and the TP ([…], time 28 day) was 6 g/dL. It also gave a gamma-GTP ([…], time 28 day) of 1 IU/L.
